# PubChem BioAssay (NCI)
#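 Interpolation was linear, between the two tested concentrations surrounding the appropriate level; five concentrations were tested over 48 hours in 96-well plates. Definition used: TGI = concentration required for complete inhibition of growth.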
# Experiments:
# Assay in all cases: DTP human tumour cell line panel, 48 h
# HCT-15 colon = system: HCT-15 colon
# ACHN renal = system: ACHN renal
# SNB-19 CNS = system: SNB-19 CNS
# A498 renal = system: A498 renal
# HCC-2998 colon = system: HCC-2998 colon
# HOP-62 NSCLC = system: HOP-62 NSCLC
# T-47D breast = system: T-47D breast
# MDA-MB-231 breast = system: MDA-MB-231 breast
# SF-539 CNS = system: SF-539 CNS
# UO-31 renal = system: UO-31 renal
# OVCAR-8 ovarian = system: OVCAR-8 ovarian
# M14 melanoma = system: M14 melanoma
# SK-MEL-28 melanoma = system: SK-MEL-28 melanoma
# COLO 205 colon = system: COLO 205 colon
# TK-10 renal = system: TK-10 renal
# NCI/ADR-RES ovarian = system: NCI/ADR-RES ovarian
# U251 CNS = system: U251 CNS
# SNB-75 CNS = system: SNB-75 CNS
# DU-145 prostate = system: DU-145 prostate
# NCI-H23 lung = system: NCI-H23 lung
# NCI-H522 lung = system: NCI-H522 lung
# HCT-116 colon = system: HCT-116 colon
# SK-MEL-5 melanoma = system: SK-MEL-5 melanoma
# UACC-62 melanoma = system: UACC-62 melanoma
# MALME-3M melanoma = system: MALME-3M melanoma
# MOLT-4 leukemia = system: MOLT-4 leukemia
# RXF 393 renal = system: RXF 393 renal
# CAKI-1 renal = system: CAKI-1 renal
# OVCAR-3 ovarian = system: OVCAR-3 ovarian
# RPMI-8226 leukemia = system: RPMI-8226 leukemia
# HS 578T breast = system: HS 578T breast
# K-562 leukemia = system: K-562 leukemia
# HOP-92 NSCLC = system: HOP-92 NSCLC
# A549 NSCLC = system: A549 NSCLC
# IGROV1 ovarian = system: IGROV1 ovarian
# SN12C renal = system: SN12C renal
# SF-268 CNS = system: SF-268 CNS
# LOX IMVI melanoma = system: LOX IMVI melanoma
# EKVX NSCLC = system: EKVX NSCLC
# HL-60(TB) leukemia = system: HL-60(TB) leukemia
# SF-295 CNS = system: SF-295 CNS
# MDA-N = system: MDA-N
# KM12 colon = system: KM12 colon
# OVCAR-5 ovarian = system: OVCAR-5 ovarian
# MCF7 breast = system: MCF7 breast
# UACC-257 melanoma = system: UACC-257 melanoma
# SK-OV-3 ovarian = system: SK-OV-3 ovarian
# NCI-H460 lung = system: NCI-H460 lung
# 786-0 renal = system: 786-0 renal
# HT29 colon = system: HT29 colon
# SW-620 colon = system: SW-620 colon
# SK-MEL-2 melanoma = system: SK-MEL-2 melanoma
# PC-3 prostate = system: PC-3 prostate
# SR leukemia = system: SR leukemia
# MDA-MB-435 = system: MDA-MB-435
# BT-549 breast = system: BT-549 breast
# OVCAR-4 ovarian = system: OVCAR-4 ovarian
# CCRF-CEM leukemia = system: CCRF-CEM leukemia
compound,measurement,setting,value
O=C1CC(O)c2c(Br)sc(Br)c21 (centres undefined),TGI,HCT-15 colon,43 µM
same,TGI,ACHN renal,29.7 µM
same,TGI,SNB-19 CNS,34.9 µM
same,TGI,A498 renal,39.6 µM
same,TGI,HCC-2998 colon,18 µM
same,TGI,HOP-62 NSCLC,24.5 µM
same,TGI,T-47D breast,30.5 µM
same,TGI,MDA-MB-231 breast,29.9 µM
same,TGI,SF-539 CNS,21.5 µM
same,TGI,UO-31 renal,7.19 µM
same,TGI,OVCAR-8 ovarian,24.1 µM
same,TGI,M14 melanoma,28.8 µM
same,TGI,SK-MEL-28 melanoma,30.1 µM
same,TGI,COLO 205 colon,31 µM
same,TGI,TK-10 renal,13.3 µM
same,TGI,NCI/ADR-RES ovarian,> 100 µM
same,TGI,U251 CNS,16.4 µM
same,TGI,SNB-75 CNS,29.8 µM
same,TGI,DU-145 prostate,22.2 µM
same,TGI,NCI-H23 lung,57.7 µM
same,TGI,NCI-H522 lung,29.4 µM
same,TGI,HCT-116 colon,26.7 µM
same,TGI,SK-MEL-5 melanoma,34.5 µM
same,TGI,UACC-62 melanoma,26.3 µM
same,TGI,MALME-3M melanoma,32.9 µM
same,TGI,MOLT-4 leukemia,4.61 µM
same,TGI,RXF 393 renal,5.51 µM
same,TGI,CAKI-1 renal,4.24 µM
same,TGI,OVCAR-3 ovarian,19.9 µM
same,TGI,RPMI-8226 leukemia,11.8 µM
same,TGI,HS 578T breast,55.9 µM
same,TGI,K-562 leukemia,8.3 µM
same,TGI,HOP-92 NSCLC,43.6 µM
same,TGI,A549 NSCLC,43.4 µM
same,TGI,IGROV1 ovarian,31.9 µM
same,TGI,SN12C renal,34.2 µM
same,TGI,SF-268 CNS,43.8 µM
same,TGI,LOX IMVI melanoma,20.4 µM
same,TGI,EKVX NSCLC,27.7 µM
same,TGI,HL-60(TB) leukemia,14.9 µM
same,TGI,SF-295 CNS,32 µM
same,TGI,MDA-N,22.5 µM
same,TGI,KM12 colon,20.8 µM
same,TGI,OVCAR-5 ovarian,38.6 µM
same,TGI,MCF7 breast,15.5 µM
same,TGI,UACC-257 melanoma,17.4 µM
same,TGI,SK-OV-3 ovarian,30.3 µM
same,TGI,NCI-H460 lung,34.8 µM
same,TGI,786-0 renal,14.8 µM
same,TGI,HT29 colon,43.1 µM
same,TGI,SW-620 colon,4.53 µM
same,TGI,SK-MEL-2 melanoma,28 µM
same,TGI,PC-3 prostate,25.9 µM
same,TGI,SR leukemia,29.6 µM
same,TGI,MDA-MB-435,18.5 µM
same,TGI,BT-549 breast,63.1 µM
OC1(c2ccccc2)CC2CCC(C1)N2CCCC1(c2ccc(F)cc2)OCCO1 (centres undefined),TGI,HCT-15 colon,> 100 µM
same,TGI,ACHN renal,> 100 µM
same,TGI,A498 renal,> 100 µM
same,TGI,HOP-62 NSCLC,> 100 µM
same,TGI,T-47D breast,> 100 µM
same,TGI,MDA-MB-231 breast,> 100 µM
same,TGI,SF-539 CNS,> 100 µM
same,TGI,UO-31 renal,> 100 µM
same,TGI,OVCAR-8 ovarian,30.2 µM
same,TGI,M14 melanoma,44.9 µM
same,TGI,SK-MEL-28 melanoma,> 100 µM
same,TGI,COLO 205 colon,> 100 µM
same,TGI,TK-10 renal,> 100 µM
same,TGI,NCI/ADR-RES ovarian,29.1 µM
same,TGI,U251 CNS,> 100 µM
same,TGI,SNB-75 CNS,> 100 µM
same,TGI,DU-145 prostate,> 100 µM
same,TGI,NCI-H23 lung,> 100 µM
same,TGI,NCI-H522 lung,> 100 µM
same,TGI,HCT-116 colon,> 100 µM
same,TGI,SK-MEL-5 melanoma,44.3 µM
same,TGI,UACC-62 melanoma,> 100 µM
same,TGI,MALME-3M melanoma,> 100 µM
same,TGI,MOLT-4 leukemia,> 100 µM
same,TGI,RXF 393 renal,> 100 µM
same,TGI,CAKI-1 renal,> 100 µM
same,TGI,OVCAR-3 ovarian,> 100 µM
same,TGI,RPMI-8226 leukemia,> 100 µM
same,TGI,HS 578T breast,> 100 µM
same,TGI,K-562 leukemia,> 100 µM
same,TGI,A549 NSCLC,> 100 µM
same,TGI,IGROV1 ovarian,> 100 µM
same,TGI,SN12C renal,> 100 µM
same,TGI,SF-268 CNS,> 100 µM
same,TGI,LOX IMVI melanoma,> 100 µM
same,TGI,OVCAR-4 ovarian,> 100 µM
same,TGI,EKVX NSCLC,> 100 µM
same,TGI,HL-60(TB) leukemia,> 100 µM
same,TGI,SF-295 CNS,10.9 µM
same,TGI,MDA-N,> 100 µM
same,TGI,OVCAR-5 ovarian,> 100 µM
same,TGI,MCF7 breast,> 100 µM
same,TGI,UACC-257 melanoma,73.5 µM
same,TGI,SK-OV-3 ovarian,> 100 µM
same,TGI,786-0 renal,32.4 µM
same,TGI,HT29 colon,> 100 µM
same,TGI,CCRF-CEM leukemia,> 100 µM
same,TGI,SW-620 colon,> 100 µM
same,TGI,SK-MEL-2 melanoma,> 100 µM
same,TGI,PC-3 prostate,> 100 µM
same,TGI,SR leukemia,> 100 µM
same,TGI,MDA-MB-435,> 100 µM
same,TGI,BT-549 breast,> 100 µM
